Columns and labels:
[1] = test system: hair loss; conditions: after at least one-year daily uptake; 39% hair growth in control group; cited from earlier work
[2] = test system: Mice (males, C3H type); test: Hair growth model in mice in the resting phase of the hair cycle (weight of hair after 18 days of topical application); type: in vivo
Text: Data was objectively assessed by the experiments given hereafter in an already established hair growth model in mice [Inaoka Y, et al. 1994, 42:530-3.], employing treatment versus controls. As a positive control, minoxidil 5% was used. […] The present invention thus fulfills the need for a natural combination of plant extracts and provides the advantages of unanimous use and excellent efficacy. In mice, the hair growth and effluvium are a continuous cyclic process. […] Therefore, any hair growth during this period is non-physiologic and induced by external agents. […] Any research related to this model should employ minoxidil as the “golden standard” and as an essential positive control. Mice (males, C3H type), which were in the resting phase in their hair cycle, i.e. at 7 weeks of age, were employed in these experiments. The skin of the back of the mice was subjected to a complete hair cut by an electric razor, with areas of approximately 2.5×4 cm. Different solutions, as will be further described, (100 μL/day) were applied with a syringe 6 times a week for 18 days, and the skin was further massaged. At the end of the experiment, the animals were sacrificed and the skin of the back was excised. The excised skin was fixed on frame consisting of a metal disc with a radius of 0.9 cm. Hairs were cut by a scalpel, collected and weighted. […] Data was calculated by SigmaStat version 2.0, Jandel.

[3] = test system: hair loss; conditions: at the more effective higher concentrations; cited from earlier work

SMILES	success (hair growth) [1]	Weight Of Hair ([2]; C3H male mice, 7 weeks old, 100 μL/day topically 6 times a week for 18 days, hair from excised back skin, disc of radius 0.9 cm, control (placebo) 2.52 mg)	increase of hair weight as compared to control mice ([2]; C3H mice, topical, 18 days, versus placebo-treated control)	side effects [3]
CC(C)(C)NC(=O)[C@H]1CC[C@H]2[C@@H]3CC[C@H]4NC(=O)C=C[C@]4(C)[C@H]3CC[C@]12C [Finasteride]	60%	–	–	–
Nc1cc(N2CCCCC2)nc(N)[n+]1[O-] [Minoxidil 5.0%, minoxidil]	–	4.07 mg	about 65%	may cause hypotension or hypertrichosis

Reference: US8372383B2, “Agent for inducing hair growth containing extracts of saw palmetto and swertia” (Medidermis Ltd, priority 1999, dated 2013)
